# Patent US8951999B2, “Compounds” (Orexo AB, priority 2009, dated 2015)
# Target: T1, recombinant human mPGES-1 (Homo sapiens, UniProt O14684)
# T1 sequence (O14684 1-152): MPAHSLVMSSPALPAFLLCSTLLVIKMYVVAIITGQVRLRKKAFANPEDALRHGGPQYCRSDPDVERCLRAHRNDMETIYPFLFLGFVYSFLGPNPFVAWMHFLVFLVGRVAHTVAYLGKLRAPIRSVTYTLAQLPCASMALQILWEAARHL
# Assay: Assay B: mPGES-1 enzyme assay (modified)
# Assay type: biochemical
# Details: biological assay B (all other compounds); PGH2 final conc. 2 μM, HTRF; read-out: mPGES-1 inhibitory effect IC50
# Method: Assay B: mPGES-1 Enzyme Assay (Modified)
# The aim of this assay is to determine the affinity of a test compound for the mPGES-1 enzyme.
# 47 μl of recombinant human mPGES-1 (˜0.5 μg protein/well) containing microsomal suspension in a buffer containing GSH, (2.5 mmol/L L-Glutathione reduced, dissolved in 0.1 mol/L Phosphat Buffer pH 7.4) is dispensed in a 384-well plate and thereafter 1 μl of the test compound(s) is/are added and incubated for 25 minutes at room temperature. The enzyme reaction is started by the addition of 2 ul PGH2 (final conc. 2 μM) dissolved in water-free Diglyme. After 60 seconds the reaction is terminated by addition of a stop solution containing FeCl2 (10 μL 0.074 mol/l FeCl2). The samples are diluted between 1:25 in PBS (Phosphate Buffered Saline). 10 μl of the diluted samples are transferred to 384-well low volume plate. In order to quantify the amount of PGE2 that has been formed, a homogenous time resolved fluorescent (HTRF) detecting of PGE2 has been performed using a commercially available kit from Cisbio according to the manufactures recommendation. This HTRF-based assay has been described in detail (see: Goedken et al., J Biomol Screen, 2008, 13(7), 619-625). Briefly, the diluted samples are mixed with […] PGE2-d2 conjugate and 5 μl anti-PGE2 cryptate conjugate. After an incubation period of the plates over night, the fluorescence is measured by the use of an appropriate microplate reader.
# The fluorescence of Europium cryptate (maxex=307 nm, maxem=620 nm) and d2-PGE2 (maxex=620 nm, maxem=665 nm) are measured.
# The extent of the specific HTRF is measured as a ratio of the emission intensity at 665 nm vs. that at 620 nm at an excitation pulse of 320 nm. The quantification plate contains also wells with different concentrations of PGE2 as calibration curve for the calculation of the PGE2 concentrations from the HTRF ratio values.
# From all mPGES enzyme assay the background is subtracted and the IC50 is calculated over a nonlinear regression with conventional software.
row,SMILES,IC50 [nM]
1,"COCCOc1ccc(NC(=O)c2cc(CNC(=O)C3(C(F)(F)F)CC3)ccc2Cl)cc1C(=O)N[C@H]1CC[C@H](C(F)(F)F)CC1 [Example 53, N-[4-(2-Methoxy)ethoxy-3-(trans-4-trifluoromethylcyclohexyl)aminocarbonyl-phenyl]-2-chloro-5-[1-(trifluoromethyl)cyclopropyl]carbonylaminomethyl-benzamide]",11
2,CC(C)(C)NC(=O)c1cc(NC(=O)c2c(Cl)ccc(CNC(=O)C(C)(C)C(F)(F)F)c2F)ccc1OCC(F)F [Example 78],2
3,CC(C)(C(=O)NCc1ccc(Cl)c(C(=O)Nc2ccc(OCC(F)F)c(C(=O)Nc3ccc(Cl)c(C#N)c3)c2)c1)C(F)(F)F [Example 106],6
4,"CC(C)(C)C(=O)NCc1ccc(Cl)c(C(=O)Nc2ccc(OCC(F)F)c(C(=O)Nc3ccc(F)c(Cl)c3)c2)c1F [Example 46, N-[4-(2,2-Difluoroethyl)oxy-3-(4-fluoro-3-chloro-phenyl)aminocarbonyl-phenyl]-6-chloro-2-fluoro-3-(tert-butylcarbonylamino)methyl-benzamide]",5
5,"CC(C)(C(=O)NCc1ccc(Cl)c(C(=O)Nc2ccc(OCC(F)F)c(C(=O)N[C@H]3CC[C@H](C(F)(F)F)CC3)c2)c1)C(F)(F)F [Example 82, N-[4-(2,2-difluoroethyl)oxy-3-(trans-4-trifluoromethylcyclohexyl)aminocarbonyl-phenyl]-2-chloro-5-[(2,2,2-trifluoro-1,1-dimethyl-ethyl)carbonylamino}methyl-benzamide]",8
6,COCCOc1ccc(NC(=O)c2cc(CNC(=O)C(C)(C)C(F)(F)F)ccc2Cl)cc1C(=O)Nc1ccc(Br)cc1 [Example 72],4
7,CC(C)(C)C(=O)NCc1ccc(F)c(C(=O)Nc2ccc(OCC(F)F)c(C(=O)N[C@H]3CC[C@H](C(F)(F)F)CC3)c2)c1F [Example 50],34
8,CC(C)(C(=O)NCc1ccc(Cl)c(C(=O)Nc2ccc(OCC(F)F)c(C(=O)Nc3ccc(Cl)cc3Cl)c2)c1)C(F)(F)F [Example 94],6
9,Cc1cc(NC(=O)c2cc(NC(=O)c3cc(CNC(=O)C(C)(C)C(F)(F)F)ccc3Cl)ccc2OCC(F)F)ccc1Cl [Example 92],6
10,"CC(C)(C)C(=O)NCc1ccc(F)c(C(=O)Nc2ccc(OCC(F)F)c(C(=O)Nc3ccc(Br)cc3)c2)c1Cl [Example 44, N-[4-(2,2-Difluoroethyl)oxy-3-(4-bromophenyl)aminocarbonyl-phenyl]-6-fluor-2-chlor-3-(tert-butylcarbonylamino)methyl-benzamide]",15
11,CNC(=O)c1cc(NC(=O)c2cc(CNC(=O)C(C)(C)C(F)(F)F)ccc2Cl)ccc1OCC(F)F [Example 97],79
12,"CC(C)(C)C(=O)NCc1ccc(Cl)c(C(=O)Nc2ccc(OCC(F)F)c(C(=O)N[C@H]3CC[C@H](C(F)(F)F)CC3)c2)c1Cl [Example 48, N-[4-(2,2-Difluoroethyl)oxy-3-[trans-(4-trifluoromethylcyclohexyl)amino]carbonylphenyl]-2,6-dichloro-3-(tert-butylcarbonylamino)methyl-benzamide]",6
13,CCNC(=O)c1cc(NC(=O)c2cc(CNC(=O)C(C)(C)C(F)(F)F)ccc2Cl)ccc1OCC(F)F [Example 112],16
14,"CC(C)(C)C(=O)NCc1ccc(Cl)c(C(=O)Nc2ccc(N3CC(F)(F)C3)c(C(=O)Nc3ccc(Br)cc3)c2)c1 [Example 60, N-[4-(3,3-Difluoro-azetidin-1-yl)-3-(4-bromphenyl)aminocarbonyl-phenyl]-2-chloro-5-(tert-butylcarbonylamino)methyl-benzamide]",26
15,CC(NC(=O)c1cc(NC(=O)c2cc(CNC(=O)C(C)(C)C(F)(F)F)ccc2Cl)ccc1OCC(F)F)C(F)(F)F (centres unmarked) [Example 99],7
16,"CC(C)(C)C(=O)NCc1ccc(Cl)c(C(=O)Nc2ccc(N[C@H]3CC[C@H](C(F)(F)F)CC3)c(C(=O)N[C@H]3CC[C@H](C(F)(F)F)CC3)c2)c1 [Example 56, N-[4-(trans-4-trifluoromethylcyclohexyl)amino-3-[trans-(4-trifluoromethylcyclohexyl)amino]carbonyl-phenyl]-2-chloro-5-(tert-butylcarbonylamino)methyl-benzamide]",128
17,"CC(C)(C)C(=O)NCc1ccc(F)c(C(=O)Nc2ccc(F)c(C(=O)Nc3ccc(Br)cc3)c2)c1F [Example 49, N-[4-Fluoro-3-(4-bromophenyl)aminocarbonyl-phenyl]-2,6-difluoro-3-(tert-butylcarbonylamino)methyl-benzamide]",120
18,O=C(Nc1ccc(OC2CCOC2)c(C(=O)N[C@H]2CC[C@H](C(F)(F)F)CC2)c1)c1cc(CNC(=O)C2(C(F)(F)F)CC2)ccc1Cl (some centres unmarked) [Example 68],9
19,CC(C)(C(=O)NCc1ccc(Cl)c(C(=O)Nc2ccc(OCC(F)F)c(C(=O)NC3CCCC3)c2)c1)C(F)(F)F [Example 111],7

# More lines, now with the values ahead:
row,IC50 [nM],SMILES
1,2,CC(C)(C)C(=O)NCc1ccc(Cl)c(C(=O)Nc2ccc(N3CCC(F)(F)CC3)c(C(=O)Nc3ccc(Br)cc3)c2)c1Cl [Example 181]
2,11,CC(C)(C(=O)NCc1ccc(Cl)c(C(=O)Nc2ccc(OCC(F)F)c(C(=O)NCC3CC3)c2)c1Cl)C(F)(F)F [Example 152]
3,6,CC(C)(C(=O)NCc1ccc(Cl)c(C(=O)Nc2ccc(OCC(F)F)c(C(=O)NCCC3CC3)c2)c1)C(F)(F)F [Example 143]
4,9,CC(C)(C(=O)NCc1ccc(Cl)c(C(=O)Nc2ccc(OCC(F)F)c(C(=O)NC3CC(F)(F)C3)c2)c1Cl)C(F)(F)F [Example 154]
5,5,CC(C)(C(=O)NCc1ccc(Cl)c(C(=O)Nc2ccc(OCC(F)F)c(C(=O)NC3CC4CCC3C4)c2)c1)C(F)(F)F (centres unmarked) [Example 124]
6,7,CC(NC(=O)c1cc(NC(=O)c2c(Cl)ccc(CNC(=O)C(C)(C)C(F)(F)F)c2Cl)ccc1OCC(F)F)C(F)(F)F (centres unmarked) [Example 159]
7,47,Cn1cccc1C(=O)NCc1ccc(Cl)c(C(=O)Nc2ccc(OCC(F)F)c(C(=O)Nc3ccc(Br)cc3)c2)c1 [Example 167]
8,5,CC(C)(C(=O)NCc1ccc(Cl)c(C(=O)Nc2ccc(OCC(F)F)c(C(=O)Nc3ccc(F)c(Cl)c3)c2)c1)C(F)(F)F [Example 128]
9,6,CC(C)(C(=O)NCc1ccc(Cl)c(C(=O)Nc2ccc(OCC(F)F)c(C(=O)NCc3ccccc3OC(F)(F)F)c2)c1)C(F)(F)F [Example 132]
10,48,CC(C)(C(=O)NCc1ccc(Cl)c(C(=O)Nc2ccc(OCC(F)F)c(C(=O)NC3CCCOC3)c2)c1)C(F)(F)F (centres unmarked) [Example 123]
11,40,CC(C)(C(=O)NCc1ccc(Cl)c(C(=O)Nc2ccc(OCC(F)F)c(C(=O)NC[C@@H]3CCCO3)c2)c1)C(F)(F)F [Example 117]
12,98,CC(C)(C(=O)NCc1ccc(Cl)c(C(=O)Nc2ccc(OCC(F)F)c(C(=O)Nc3ccncn3)c2)c1)C(F)(F)F [Example 118]
13,19,CC(C)(C(=O)NCc1ccc(Cl)c(C(=O)Nc2ccc(OCC(F)F)c(C(=O)Nc3nc4c(s3)CCC4)c2)c1)C(F)(F)F [Example 127]
14,9,O=C(Nc1ccc(OCC(F)F)c(C(=O)Nc2ccc(Br)cc2)c1)c1cc(CNC(=O)C(O)C(F)(F)F)ccc1Cl (centres unmarked) [Example 169]
15,4,CC(C)(C)C(=O)NCc1ccc(Cl)c(C(=O)Nc2ccc(N3CCC(F)(F)C3)c(C(=O)Nc3ccc(Br)cc3)c2)c1Cl [Example 179]
16,6,CC(C)(C(=O)NCc1ccc(Cl)c(C(=O)Nc2ccc(OCC(F)F)c(C(=O)Nc3ccccc3Cl)c2)c1)C(F)(F)F [Example 139]
